PMC3059404 (Bioconjugate chemistry, 2011)

Test system: MDA-MB-435 tumor-bearing mice
Experiment: Small animal PET, organ uptake in orthotopic MDA-MB-435 tumor-bearing mice
Type: in vivo, athymic nude mice
Conditions: co-injection with excess (0.5 μmol, 300 μg) c(RGDfk), 0.5 h

Substance: 4-^18F-fluoro-3-trifluoromethylbenzoyl-E[c(RGDfk)2] [^18F-4]
- reduction of tumor uptake by blocking: 82%
